Structures can show the parent of a compound that is named as a salt.

In data set [1] the target is T1, human MCR4 receptor (Homo sapiens, UniProt P32245).
T1 construct: expressed in transfected cells
Description: MCR4 standard functional assay (Protocol C): cAMP AlphaScreen in HEK cells. It is filed as cell-based. The note with it: Table 5. The procedure:
Stimulation of adenylate cyclase following receptor activation is a widely used measure of functional activity for a number of receptor systems. The functional assay to measure cyclic AMP (cAMP) utilises human embryonic kidney (HEK) cells that stably express the human melanocortin MCR1, MCR3 or MCR4 receptor. Activation of MCR1, MCR3 or MCR4 receptors stimulates adenylate cyclase, generating cAMP, which is measured using AlphaScreen™ (PerkinElmer assay kits.
The AlphaScreen™ cAMP assay kit consists of ‘donor beads’, ‘acceptor beads’, and biotinylated cAMP which links the different beads together. Excitation of this linked complex at […] in the Fusion™-α microplate analyser results in light emission between […].
(i) MCR1. MCR3 and MCR4 Standard Functional Assay Methodology [Assay Protocol A, B AND C Respectively]
Determination of activity against the human MCR1, MCR3 and MCR4 receptor subtypes was carried out for compounds according to the present invention using three immortalised human embryonic kidney (HEK) cell lines that had been biologically engineered to express the human melanocortin MCR1, MCR3 or MCR4 receptor subtypes. These cell lines were engineered using protocols akin to those outlined by Gouarderes et al (Gouarderes, C., (2002) Neuroscience, 115(2); 349-361).
Such-compound-induced activation of these MCR1, MCR3 or MCR4 receptors lead to the stimulation of the cellular enzyme adenylate cyclase, which in turn lead to the cellular generation, and intra-cellular accumulation, of cyclic adenosine monophosphate (cAMP). […] Intracellular levels of cAMP were quantified using the commercially available AlphaScreen™ assay kits from PerkinElmer. A detailed assay protocol and an explanation of the concept underlying this kit is available through the PerkinElmer website (www.perkinelmer.com). The protocol listed below provides a summary this information.
The quantity of intracellular cAMP produced by compound-induced activation of the MCR1, MCR3 and MCR4 receptors in these three cell lines was measured using a Fusion™-α microplate analyser set to stimulate at a wavelength of 680 nm and to measure the energy emitted at wave lengths between […]. Compound-induced increases in MCR1, MCR3 or MCR4 receptor activation were subsequently quantified as a decrease in the quantity of light emitted at wavelengths between […]. Data analysis was subsequently performed using a curve-fitting program and the apparent potency of the test compound (expressed as an EC50 and defined as the effective compound concentration that elicited 50% of the maximum compound-induced response) extrapolated from the fitted curve.
Stimulation buffer (as per AlphaScreen™ protocol): HBSS supplemented with 0.5 mM IBMX, 5 mM HEPES, 0.1% (w/v) BSA and 10 mM MgCl2. […]

Another data set addresses T2, human MCR5 receptor (Homo sapiens, UniProt P33032).
T2 construct: expressed in transfected cells
Description: MCR5 standard functional assay (Protocol D): CHO-K1-MC5R-CRE-β-lactamase reporter. It is filed as cell-based. The note with it: Table 6; for Selectivity MCR5/MCR4: MCR4 by Protocol E; for EC50: Protocol D. An excerpt: These cell lines were engineered using protocols akin to those outlined by Zaccolo et al (Zaccolo, M., (2000) Nature, 2(1); 25-29). Compound-induced activation of the MCR5 or MCR4 receptors in these two cell lines stimulated the production, and intracellular accumulation, of the enzyme β-lactamase. The quantity of β-lactamase enzyme produced was directly proportional to the degree to which the test compound activated the MCR5 or MCR4 receptors present on these cells and was quantified using the P-lactamase gene reporter analysis kit that is commercially available from Invitrogen Life Technologies. An in-depth description of this technology and assay protocols are available from the Invitrogen web site (www.invitrogen.com). The protocol listed below provides a summary of that assay methodology. The quantity of β-lactamase enzyme produced by compound-induced activation of the MCR5 or MCR4 receptors expressed in these cell lines was quantified using a LjI Biosystems Analyst™ HT 96.384 plate reader set to excite at a wave length of 405 nm, and measure the energy emitted at wave lengths of 450 nm and 530 nm. Cellular responses were quantified by dividing the measured energy emitted at a wavelength of 450 nm by the measured energy emitted at a wavelength of 530 nm. […] CCF4-AM was dissolved in 100% DMSO to give a final solution concentration of 1 mM. This solution was termed Solution A. Probenecid was dissolved in 200 mM NaOH to give a final solution concentration of 200 mM. This solution was termed Solution D. Composition of the β-lactamase assay dye solution: for 1072 μL of assay dye solution combine: 12 μL of Solution A, 60 μL of Solution B, 925 μL of Solution C and 75 μL of Solution D. […] Cells were grown in T225 vent cap flasks containing 50 ml of growth medium and maintained in a cell incubator at a temperature of 37° C. and in an environment containing 5% CO2. The composition of the growth medium for the CHO-K1-MC5R-CRE-β-lactamase was 90% v/v DMEM supplemented with; Glutamax-1, 25 mM HEPES, 10% v/v foetal calf serum (FCS), 1 mM sodium pyruvate, 0.1 mM non essential amino acids and 800 μg/ml genetic in. For the CHO-K1-MC4R-CRE-β-lactamase this growth media was further supplemented with […] Zeocin. Cells were harvested when they reached 80-90% confluency by first removing the existing growth medium and then washing with PBS that had been pre-warmed to a temperature of 37° C. This PBS was then removed and 5 ml of cell dissociation fluid added to the flask. These cells were incubated for 5 minutes in a cell incubator set at a temperature of 37° C. and in an environment containing 5% CO2 to detach the cells. When cells were detached, pre-warmed growth media was added, the cells re-suspended and mixed gently to achieve a single cell suspension by pipetting. This cell suspension was then used for experimentation, or transferred into a new T225 flask to perpetuate the cell culture. On the first day of the assay cells were harvested as described above. […] For each assay the cell plates were then retuned to a cell incubator maintained at a temperature of 37° C. and in an environment containing 5% CO2 overnight before performing the assay on the second assay day. […] For the MCR4 improved functional assay methodology the solution of cyclohexamide was not added. Subsequently, 10 μL of the test compound solution was transferred to the assay plate. […] After this incubation period the plate was removed from the incubator, 10 μL of the […] assay dye solution was added to each well and then the plate returned to the cell incubator.

Data set [2] deals with T1, human MCR4 receptor. Description: MCR4 improved functional assay (Protocol E): CHO-K1-MC4R-CRE-β-lactamase reporter. It is filed as cell-based. An excerpt:
(ii) MCR5 Standard Functional Assay Methodology and MCR4 Improved Functional Assay Methodology [Assay Protocol D and E Respectively] […] These cell lines were engineered using protocols akin to those outlined by Zaccolo et al (Zaccolo, M., (2000) Nature, 2(1); 25-29). Compound-induced activation of the MCR5 or MCR4 receptors in these two cell lines stimulated the production, and intracellular accumulation, of the enzyme β-lactamase. The quantity of β-lactamase enzyme produced was directly proportional to the degree to which the test compound activated the MCR5 or MCR4 receptors present on these cells and was quantified using the P-lactamase gene reporter analysis kit that is commercially available from Invitrogen Life Technologies. An in-depth description of this technology and assay protocols are available from the Invitrogen web site (www.invitrogen.com). The protocol listed below provides a summary of that assay methodology. The quantity of β-lactamase enzyme produced by compound-induced activation of the MCR5 or MCR4 receptors expressed in these cell lines was quantified using a LjI Biosystems Analyst™ HT 96.384 plate reader set to excite at a wave length of 405 nm, and measure the energy emitted at wave lengths of 450 nm and 530 nm. Cellular responses were quantified by dividing the measured energy emitted at a wavelength of 450 nm by the measured energy emitted at a wavelength of 530 nm. […] CCF4-AM was dissolved in 100% DMSO to give a final solution concentration of 1 mM. This solution was termed Solution A. Probenecid was dissolved in 200 mM NaOH to give a final solution concentration of 200 mM. This solution was termed Solution D. Composition of the β-lactamase assay dye solution: for 1072 μL of assay dye solution combine: 12 μL of Solution A, 60 μL of Solution B, 925 μL of Solution C and 75 μL of Solution D. […] Cells were grown in T225 vent cap flasks containing 50 ml of growth medium and maintained in a cell incubator at a temperature of 37° C. and in an environment containing 5% CO2. The composition of the growth medium for the CHO-K1-MC5R-CRE-β-lactamase was 90% v/v DMEM supplemented with; Glutamax-1, 25 mM HEPES, 10% v/v foetal calf serum (FCS), 1 mM sodium pyruvate, 0.1 mM non essential amino acids and 800 μg/ml genetic in. For the CHO-K1-MC4R-CRE-β-lactamase this growth media was further supplemented with […] Zeocin. Cells were harvested when they reached 80-90% confluency by first removing the existing growth medium and then washing with PBS that had been pre-warmed to a temperature of 37° C. This PBS was then removed and 5 ml of cell dissociation fluid added to the flask. These cells were incubated for 5 minutes in a cell incubator set at a temperature of 37° C. and in an environment containing 5% CO2 to detach the cells. When cells were detached, pre-warmed growth media was added, the cells re-suspended and mixed gently to achieve a single cell suspension by pipetting. This cell suspension was then used for experimentation, or transferred into a new T225 flask to perpetuate the cell culture. […] For each assay the cell plates were then retuned to a cell incubator maintained at a temperature of 37° C. and in an environment containing 5% CO2 overnight before performing the assay on the second assay day. […] For the MCR4 improved functional assay methodology the solution of cyclohexamide was not added. Subsequently, 10 μL of the test compound solution was transferred to the assay plate. The assay plate was then transferred to a cell incubator, set at 37° C. and in an environment containing 5% CO2, and left for 4 hours for the MCR4 improved assay methodology, or 5 hours for the MCR5 standard assay methodology. After this incubation period the plate was removed from the incubator, 10 μL of the […] assay dye solution was added to each well and then the plate returned to the cell incubator.

Data set [3] concerns men with psychogenic and organic ED. Conditions: cited from earlier work.
Setting [4] is: functional potency at the MC4 receptor (EC50), Protocols C or E.

T1 sequence (P32245 whole entry): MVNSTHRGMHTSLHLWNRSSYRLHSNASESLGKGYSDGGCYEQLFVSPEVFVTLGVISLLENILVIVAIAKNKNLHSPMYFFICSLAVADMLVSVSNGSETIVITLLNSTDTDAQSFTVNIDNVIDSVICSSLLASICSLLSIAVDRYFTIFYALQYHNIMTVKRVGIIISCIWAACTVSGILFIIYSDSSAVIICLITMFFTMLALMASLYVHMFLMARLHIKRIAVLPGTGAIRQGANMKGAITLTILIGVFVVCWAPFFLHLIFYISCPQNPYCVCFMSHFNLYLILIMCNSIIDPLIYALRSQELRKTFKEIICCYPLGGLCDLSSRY
T2 sequence (P33032 whole entry): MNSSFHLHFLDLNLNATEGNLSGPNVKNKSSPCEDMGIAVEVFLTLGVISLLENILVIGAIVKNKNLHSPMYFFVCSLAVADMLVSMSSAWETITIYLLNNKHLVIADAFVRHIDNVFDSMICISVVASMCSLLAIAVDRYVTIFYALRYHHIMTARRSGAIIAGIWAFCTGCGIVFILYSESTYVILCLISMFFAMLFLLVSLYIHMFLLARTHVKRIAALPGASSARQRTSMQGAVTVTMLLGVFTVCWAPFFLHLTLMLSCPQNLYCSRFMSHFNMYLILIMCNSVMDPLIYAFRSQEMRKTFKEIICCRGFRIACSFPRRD

Broadly, the EC50 is the concentration needed to bring the measured effect to its halfway point. `Cc1ccc([C@@]2(O)[C@H](C)CN(C(=O)[C@@H]3CN(C(C)(C)C)C[C@H]3c3ccc(F)cc3F)C[C@@H]2C)cc1` [Example 4, (3R,4R,5S)-1-{[(3S,4R)-1-tert-Butyl-4-(24-difluorophenyl)pyrrolidin-3-yl]carbonyl}-3,5-dimethyl-4-(4-methylphenyl)piperidin-4-ol] had an EC50 on human MCR4 receptor [1] of 45 nM.

Take `C[C@@H]1CN(C(=O)[C@@H]2CN(C(C)(C)C)C[C@H]2c2ccc(F)cc2F)C[C@H](C)[C@@]1(O)c1ccc(F)cc1F.Cl` [Example 15, (3R,4R,5S)-1-{[(3S,4R)-1-tert-butyl-4-(2,4-difluorophenyl)pyrrolidin-3-yl]carbonyl}-4-(2,4-difluorophenyl)-3,5-dimethylpiperidin-4-ol hydrochloride]: on human MCR5 receptor, the “Selectivity MCR5/MCR4” value was 556. The concentration for a half-maximal effect (EC50) was 3500 nM on human MCR5 receptor; 6.3 nM at human MCR4 receptor [2] (MCR4 EC50 (nM), Table 6); under 50 nM on human MCR4 receptor [2] (setting [4]).

Turning to `C[C@@H]1CN(C(=O)[C@@H]2CN(C(C)(C)C)C[C@H]2c2ccc(F)cc2F)C[C@H](C)[C@@]1(O)c1ccccn1.Cl` [Example 22, (3R,4R,5S)-1-[(3S,4R)-1-tert-Butyl-4-(2,4-difluorophenyl)pyrrolidin-3-yl]carbonyl-3,5-dimethyl-4-pyridin-2-ylpiperidin-4-ol hydrochloride], the “Selectivity MCR5/MCR4” value on human MCR5 receptor is recorded as 772. In addition, the EC50 at human MCR5 receptor is 17800 nM; on human MCR4 receptor [2] (Protocols C or E, read-out: functional potency at the MC4 receptor (EC50)) it was under 50 nM; on human MCR4 receptor [2] (Table 6, read-out: MCR4 EC50), 23 nM.

The molecule `CCN1C[C@@H](C(=O)N2C[C@@H](C)[C@](O)(c3cccc(F)c3)[C@@H](C)C2)[C@H](c2ccc(F)cc2F)C1` [Example 53, (3R,4R,5S)-1-{[(3S,4R)-4-(2,4-difluorophenyl)-1-ethylpyrrolidin-3-yl]carbonyl}-4-(3-fluorophenyl)-3,5-dimethylpiperidin-4-ol hydrochloride] had an EC50 on human MCR4 receptor [2] (setting [4]) of under 50 nM.

With Melanotan II, the “doses after which increased sexual desire was reported” value in data set [3] (13/19 doses, vs placebo P<0.01) is listed as 68%. In addition, in data set [3] (dose of 0.025 mg/kg), the “subjects with severe nausea” value is 12.9%. The “men with penile erection” value in data set [3] (in the absence of sexual stimulation, 20 men with psychogenic and organic ED) is 17 of 20. In data set [3] (men with ED, monitored 6 hours), the “mean duration of Rigiscan tip rigidity>80%” value was 41 min.

These data come from patent US7649002B2, “(3,5-dimethylpiperidin-1yl)(4-phenylpyrrolidin-3-yl)methanone derivatives as MCR4 agonists” (Pfizer Inc, priority 2004, dated 2010).
